The source of these data is patent US12325696B2, “Indazole derivative, preparation method therefor, and pharmaceutical application thereof” (JIANGSU HENGRUI MEDICINE CO., LTD., priority 2019, dated 2025).

This data set addresses Nav1.5 ion channel (Homo sapiens (Human), UniProt Q14524). Briefly: Manual patch clamp inhibition of Nav1.5 current in HEK293 cell. It is filed as cell-based. Particulars: whole-cell patch clamp, read-out: IC50 on inhibiting the Nav1.5 channel activity. On the procedure:
The purpose of the experiment is to investigate the effect of the compounds on Nav1.5 ion channel in an […] experiment. Nav1.5 ion channel is stably expressed on HEK293 cell. After the Nav1.5 current becomes stable, the Nav1.5 currents before and after the administration of the compound are compared so as to obtain the effect of the compound on the Nav1.5 ion channel.
Extracellular fluid: NaCl, 137 mM; KCl, 4 mM; CaCl2), 1.8 mM; MgCl2, 1 mM; HEPES, 10; glucose, 10 mM; pH 7.4 (NaOH titration).
Intracellular fluid: aspartic acid, 140 mM; MgCl2, 2 mM; EGTA, 11 mM; HEPES, 10 mM; pH 7.2 (CsOH titration).
The test compound was dissolved in dimethyl sulfoxide (DMSO) at a stock concentration of 9 mM. The stock solution of the test compound was dissolved in the extracellular fluid on the day of the test and formulated into the required concentration.
1) The compound was formulated into solutions with specified concentrations. The solutions were added to the pipelines respectively in order from high to low concentration, and the pipelines were marked.
2) The cell was transferred to the perfusion tank, and perfused with the extracellular fluid. The intracellular fluid was stored in small batches in a −80° C. refrigerator, and melted on the day of the experiment. The electrode was pulled with PC-10 (Narishige, Japan). Recording was carried out with the whole-cell patch clamp, and the noise was filtered at one-fifth of the sampling frequency.
3) All compounds were perfused with a perfusion system that uses its own gravity. Each concentration was tested in at least two cells. After the current stabilized (or after 5 minutes), the blocking effect of the compound was calculated by comparing the changes in the current before and after the administration of the compound.
The cell was clamped at −80 mV. The cell was depolarized to Vhalf with a square wave lasting 8 milliseconds, hyperpolarized to −120 mV with a square wave lasting 20 milliseconds, and depolarized to −10 mV with a square wave lasting 20 milliseconds to obtain the Nav1.5 current. This procedure was repeated every 15 seconds. The maximum current caused by the −10 mV square wave was measured. After the current became stable, the test compound was perfused. After the response became stable, the blocking intensity was calculated.
The data was stored in the computer system for analysis. Data collection and analysis were carried out by pCLAMP 10 (Molecular Devices, Union City, CA). Stable current means that the absolute average value of the peak current of four consecutive scans exceeds 200 pA and the CV value is less than 10%, or the average value of the peak current of four consecutive scans is between 200 pA and 50 pA and the CV value is less than 30%. The average value of the last four current peaks after the current stabilized was used to calculate the effect of the compound at the concentration.

Each structure is given as a SMILES string. Some results are limits rather than exact numbers.

Sequence of Nav1.5 ion channel (Q14524 whole entry): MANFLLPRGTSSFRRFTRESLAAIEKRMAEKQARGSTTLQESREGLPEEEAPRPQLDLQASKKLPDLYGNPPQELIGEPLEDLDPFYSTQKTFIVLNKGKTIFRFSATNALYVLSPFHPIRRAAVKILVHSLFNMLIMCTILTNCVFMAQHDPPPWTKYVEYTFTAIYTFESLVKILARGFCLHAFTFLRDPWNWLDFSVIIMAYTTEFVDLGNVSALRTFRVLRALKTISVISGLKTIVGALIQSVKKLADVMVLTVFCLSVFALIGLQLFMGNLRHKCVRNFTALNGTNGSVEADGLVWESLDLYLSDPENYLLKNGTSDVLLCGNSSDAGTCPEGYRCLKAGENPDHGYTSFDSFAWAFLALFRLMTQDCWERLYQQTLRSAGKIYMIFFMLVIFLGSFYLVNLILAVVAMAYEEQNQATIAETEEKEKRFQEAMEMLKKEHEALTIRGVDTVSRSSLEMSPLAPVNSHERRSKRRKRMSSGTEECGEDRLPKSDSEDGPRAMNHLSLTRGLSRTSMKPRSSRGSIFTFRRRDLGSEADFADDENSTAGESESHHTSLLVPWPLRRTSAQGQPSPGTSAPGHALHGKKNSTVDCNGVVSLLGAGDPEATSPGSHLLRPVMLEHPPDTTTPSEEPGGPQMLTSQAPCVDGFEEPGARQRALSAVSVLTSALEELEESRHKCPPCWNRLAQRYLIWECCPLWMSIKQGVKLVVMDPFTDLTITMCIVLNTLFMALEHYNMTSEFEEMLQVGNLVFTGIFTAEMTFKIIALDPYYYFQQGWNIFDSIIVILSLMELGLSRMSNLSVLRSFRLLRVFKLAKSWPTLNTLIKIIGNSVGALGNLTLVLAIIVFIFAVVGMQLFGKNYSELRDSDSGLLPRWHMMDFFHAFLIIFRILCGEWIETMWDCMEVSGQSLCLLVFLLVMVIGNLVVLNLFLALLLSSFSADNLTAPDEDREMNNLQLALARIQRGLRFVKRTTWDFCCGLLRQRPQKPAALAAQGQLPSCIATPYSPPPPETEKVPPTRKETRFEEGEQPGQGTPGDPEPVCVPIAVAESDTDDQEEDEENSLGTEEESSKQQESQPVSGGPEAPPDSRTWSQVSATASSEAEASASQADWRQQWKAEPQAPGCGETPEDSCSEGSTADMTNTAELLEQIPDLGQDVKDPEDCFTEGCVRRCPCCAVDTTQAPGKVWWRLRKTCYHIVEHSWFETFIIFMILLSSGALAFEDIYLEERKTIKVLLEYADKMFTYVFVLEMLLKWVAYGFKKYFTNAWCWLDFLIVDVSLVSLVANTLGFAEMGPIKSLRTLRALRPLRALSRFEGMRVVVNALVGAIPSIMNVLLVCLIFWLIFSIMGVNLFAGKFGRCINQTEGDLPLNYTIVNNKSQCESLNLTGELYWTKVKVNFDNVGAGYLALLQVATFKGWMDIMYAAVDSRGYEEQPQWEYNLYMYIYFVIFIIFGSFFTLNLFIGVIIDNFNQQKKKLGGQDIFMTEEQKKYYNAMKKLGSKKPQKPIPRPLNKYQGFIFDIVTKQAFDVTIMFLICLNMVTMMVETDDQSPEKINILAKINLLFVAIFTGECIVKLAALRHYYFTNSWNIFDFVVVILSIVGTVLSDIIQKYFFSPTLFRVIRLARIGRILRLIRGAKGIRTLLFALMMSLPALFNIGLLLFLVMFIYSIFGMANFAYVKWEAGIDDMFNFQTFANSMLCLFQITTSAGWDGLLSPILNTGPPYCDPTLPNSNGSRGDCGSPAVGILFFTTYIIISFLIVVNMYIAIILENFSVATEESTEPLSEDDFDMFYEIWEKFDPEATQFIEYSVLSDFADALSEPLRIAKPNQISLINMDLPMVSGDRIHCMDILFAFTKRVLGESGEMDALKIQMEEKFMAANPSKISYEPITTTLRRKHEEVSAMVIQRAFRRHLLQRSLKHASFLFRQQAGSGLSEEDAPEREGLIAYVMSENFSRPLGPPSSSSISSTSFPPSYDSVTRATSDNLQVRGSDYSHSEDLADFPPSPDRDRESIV

One may read the IC50 as the midpoint of a concentration-inhibition curve. Regarding `O=C(/C=C/CNC1(COc2ccc(/C(=C(/CC(F)(F)F)c3ccccc3)c3ccc4[nH]nc(F)c4c3)cn2)CC1)N1CCOCC1` [Example 1, (E)-1-Morpholino-4-((1-(((5-((Z)-4,4,4-trifluoro-1-(3-fluoro-1H-indazol-5-yl)-2-phenylbut-1-en-1-yl)pyridin-2-yl)oxy)methyl)cyclopropyl)amino)but-2-en-1-one], the 50% inhibitory concentration (IC50) is greater than 10 µM.

In the case of `CN(C)C(=O)/C=C/CNC1(COc2ccc(/C(=C(/CC(F)(F)F)c3ccccc3)c3ccc4[nH]nc(F)c4c3)cn2)CC1` [Example 39, (E)-N,N-Dimethyl-4-((1-(((5-((Z)-4,4,4-trifluoro-1-(3-fluoro-1H-indazol-5-yl)-2-phenylbut-1-en-1-yl)pyridin-2-yl)oxy)methyl)cyclopropyl)amino)but-2-enamide], the IC50 is 8.2 µM.

`O=C(/C=C/CNC1(COc2ccc(/C(=C(/CC(F)(F)F)c3ccccc3)c3ccc4[nH]nc(F)c4c3)cn2)CC1)N1CC(O)C1` [Example 40, (E)-1-(3-Hydroxyazetidin-1-yl)-4-((1-(((5-((Z)-4,4,4-trifluoro-1-(3-fluoro-1H-indazol-5-yl)-2-phenylbut-1-en-1-yl)pyridin-2-yl)oxy)methyl)cyclopropyl)amino)but-2-en-1-one]: the IC50 was 11.5 µM.

With `O=C(/C=C/CNC1(COc2ccc(/C(=C(/CC(F)(F)F)c3ccccc3)c3ccc4[nH]nc(F)c4c3)cn2)CC1)N1CC[C@H](O)C1` [Example 41, (E)-1-((S)-3-Hydroxypyrrolidin-1-yl)-4-((1-(((5-((Z)-4,4,4-trifluoro-1-(3-fluoro-1H-indazol-5-yl)-2-phenylbut-1-en-1-yl)pyridin-2-yl)oxy)methyl)cyclopropyl)amino)but-2-en-1-one], the IC50 worked out at 5.3 µM.
